The record followed here is PMC8695447, “Novel Small Molecules Capable of Blocking mtRAS-Signaling Pathway” (Frontiers in Oncology, 2021).

What all share (assay type): cell-based
For one assay, the system named is AsPC-1 (KRAS-G12D). Nature of the assay: Anti-proliferation assay on AsPC-1. The following applies: Homo sapiens, ASPC1; 72 h treatment; average with SD (n = 3, duplicate). The procedure:
(§1) Ba/F3-parental, OCI-AML3, U397 cells were purchased from DSMZ. MDA-MB-231, HCT-116, AsPC-1, H358, HT-29, SW480, and DU-145 cells were obtained from KCLB. MDA-MB-468 cells were obtained from ATCC. All cells were maintained in RPMI with 10% FBS and antibiotics. Cells were grown in a humidified 5% CO2 incubator at 37°C. Ba/F3-parental cells were grown in the presence of 10 ng/ml IL-3. NRAS-G12D or NRAS-G12V transformed Ba/F3 cell lines (Ba/F3-NRAS-G12D, and Ba/F3-NRAS-G12V, respectively) were cultured without IL-3, which were established by the procedure described as previously ([30]).
(§2) Approximately 3.0 × 10^3 cells/well were seeded in a 96-well cell culture plate. After stabilization, 1/3 serially diluted compound in DMSO was treated to the cell. […] All GI50 values were obtained in duplicate with three independent assays and averages with standard deviation are presented.

Another assay deals with U937 (KRAS, NRAS-wt). Nature of the assay: Anti-proliferation assay on U937. The following applies: Homo sapiens, U-937; 72 h treatment; average with SD (n = 3, duplicate). Here is the method:
as §1, §2

Assay [1] has as its system phospho-AKT, -MEK, -ERK in cancer cells harboring mtRAS. Nature of the assay: Western blot, phospho-AKT, -MEK, -ERK in cancer cells harboring mtRAS. Particulars: 0.1, 1, and 10 μM for 2 h. Here is the method: Approximately 1 × 10^6 cells per well were seeded in a 6-well cell culture plate. After cell adhesion, each compounds were treated for 2 h with indicated concentration and conducted brief washing twice by ice-cold PBS. Cells were lysed by NP40 buffer (50 mM Tris–HCl pH 7.4, 1% NP40, 2 mM EDTA, 150 mM NaCl) in the presence of protease inhibitor cocktail (Roche, #11873580001) and phosphatase inhibitor cocktail (Roche, #04906837001). Each sample was loaded with same amount of total protein and separated by SDS-PAGE gel. After transferred to nitrocellulose membrane, blocking with 5% skim milk (in TBS/T) was followed. The membrane was incubated 4°C for overnight with uniformly diluted primary antibodies at 1:1,000 (v/v) in TBS/T. The following primary antibodies were used: anti-p-AKT (Cell Signaling, #9271), anti-p-ERK1/2 (Cell Signaling, #4370), anti-PARP (Cell Signaling, #9542), anti-GAPDH (Cell Signaling, #5174), anti-p-70S6K1 (Cell Signaling, #9204), anti-p-JNK(Cell Signaling, #9251), anti-p-p38 (Cell Signaling, #9216), and anti-p-MEK1/2 (Santa Cruz, sc-81503). […] Chemiluminescence signals were detected by ImageQuant™ LAS 4000 (GE Healthcare). […]
Background: A western blot detects proteins with antibodies after separation by electrophoresis.

Assay [2] concerns cleaved PARP in cancer cells harboring mtRAS. The experiment in a line: Western blot, cleaved PARP in cancer cells harboring mtRAS. The following applies: 1 μM, 24 h. Here is the method: Approximately 1 × 10^6 cells per well were seeded in a 6-well cell culture plate. After cell adhesion, each compounds were treated for 2 h with indicated concentration and conducted brief washing twice by ice-cold PBS. Cells were lysed by NP40 buffer (50 mM Tris–HCl pH 7.4, 1% NP40, 2 mM EDTA, 150 mM NaCl) in the presence of protease inhibitor cocktail (Roche, #11873580001) and phosphatase inhibitor cocktail (Roche, #04906837001). Each sample was loaded with same amount of total protein and separated by SDS-PAGE gel. After transferred to nitrocellulose membrane, blocking with 5% skim milk (in TBS/T) was followed. […] Chemiluminescence signals were detected by ImageQuant™ LAS 4000 (GE Healthcare).
Figure 4 The effects of (A) SIJ1795 and (B) SIJ1772 on apoptosis induction in cancer cells harboring mtRAS. […] (C) Apoptotic cell population (annexin V-positive) was determined by flow cytometry analysis (n = 3). […] Statistical significance was determined using a one-way ANOVA analysis (*p < 0.05, **p < 0.01, ***p < 0.001).

Assay [3] relates to Ba/F3-NRAS-G12D and Ba/F3-NRAS-G12V cells. Nature of the assay: Flow cytometry apoptosis analysis (annexin V/PI), Ba/F3 mtRAS cells. Particulars: 1 μM, 24 h. Here is the method: (§3) For apoptosis analysis, cells (1 × 10^6 cells per sample) were incubated with each compounds for 24 h. Cells were subjected to brief ice-cold PBS washing and subjected to staining with Alexafluor488-conjugated annexin V (Thermo Fisher, A13201), and propidium iodide (PI, Thermo Fisher, P3560). Thereafter, apoptotic cells were classified by FACS Accuri™ C6 Plus (BD Biosciences). Debris and unstained cells and were excluded by gating.
Figure 3 (A, B) The effects of SIJ1795 and SIJ1772 on apoptosis induction in Ba/F3 cells transformed with mtRAS (NRAS-G12D and NRAS-G12V). Cells were treated with 0.1 and 1 μM of SIJ1795, SIJ1772, and GNF-7 for 24 h Western blot analysis was conducted to evaluate the cleaved PARP and level. GAPDH was used as a loading control. (C) Apoptotic cell population (annexin V-positive) was determined by flow cytometry analysis (n = 3). Cells were treated with 1 μM of indicated compounds for 24 h. Statistical significance was calculated by a one-way ANOVA analysis (**p < 0.01, ***p < 0.001).
Background: Flow cytometry measures light scatter and fluorescence of single cells or particles in a stream.

For assay [4], the system named is cancer cells harboring mtRAS. The experiment in a line: Flow cytometry apoptosis analysis (annexin V/PI), cancer cells harboring mtRAS. The following applies: 1 μM, 24 h. The procedure:
as §3
Figure 4 The effects of (A) SIJ1795 and (B) SIJ1772 on apoptosis induction in cancer cells harboring mtRAS. Cells were treated with 0.1 and 1 μM of SIJ1795 SIJ1772, and GNF-7 for 24 h. Western blot analysis was conducted to evaluate the cleaved PARP and level. GAPDH was used as a loading control. (C) Apoptotic cell population (annexin V-positive) was determined by flow cytometry analysis (n = 3). Cells were treated with 1 μM of indicated compounds for 24 h. Statistical significance was determined using a one-way ANOVA analysis (*p < 0.05, **p < 0.01, ***p < 0.001).

Assay [5] deals with Ba/F3 cells transformed with mtRAS (NRAS-G12D and NRAS-G12V) and cancer cells harboring mtRAS. Nature of the assay: Flow cytometry cell cycle analysis (PI). Particulars: 1 μM, 24 h. Here is the method: For cell cycle analysis, cells (1 × 10^6 cells per sample) were incubated with each compounds for 24 h. Cells were subjected to brief ice-cold PBS washing and fixed with 70% EtOH for 1 h at −20°C. Cells were stained with PI/RNase staining solution (Cell signaling, #4087) and incubated 30 min at room temperature in a dark condition. Stained cells were subjected to flow cytometry analysis. Debris and unstained cells and were excluded by gating.
Figure 5 The effects of SIJ1795 and SIJ1772 on cell cycle arrest against in (A, B) Ba/F3 cells transformed with mtRAS (NRAS-G12D and NRAS-G12V) and (C, D) cancer cells harboring mtRAS. Cells were treated with 1 µM of SIJ1795, SIJ1772, and GNF-7 for 24 h. Cells were stained by PI and analyzed the percentage of cell cycle phase by flow cytometry.

Regarding `Cc1ccc(NC(=O)c2cccc(C(F)(F)F)c2)cc1N1Cc2cnc(Nc3cnn(C4CCN(S(C)(=O)=O)CC4)c3)nc2N(C)C1=O` [SIJ1772, N-(4-Methyl-3-(1-methyl-7-((1-(1-(methylsulfonyl)piperidin-4-yl)-1H-pyrazol-4-yl)amino)-2-oxo-1,4-dihydropyrimido[4,5-d]pyrimidin-3(2H)-yl)phenyl)-3-(trifluoromethyl)benzamide], the GI50 came out at 170 ± 32 nM in the assay with AsPC-1 (KRAS-G12D) and 9.59 ± 0.832 µM with U937 (KRAS, NRAS-wt). For the same compound, the “signaling inhibitory activities in cancer cells with mtRAS relative to GNF-7” value in assay [1] is on record as “comparable to those of GNF-7”. Further, in assay [2], the “level of cleaved PARP in cancer cells harboring mtRAS” value was “notably increased”. In addition, the “apoptotic cells population (annexin V/PI) in Ba/F3-NRAS-G12D and Ba/F3-NRAS-G12V cells” value in assay [3] was “increase of apoptotic cells”. Also, the “apoptosis against cancer cells harboring mtRAS (annexin V/PI)” value in assay [4] is listed as “induced apoptosis”. Besides, in assay [5], the cell cycle arrest entry is “G0/G1 arrest was induced”.
In the case of `CCN1CCN(c2cccc(Nc3ncc4c(n3)N(C)C(=O)N(c3cc(NC(=O)c5cccc(C(F)(F)F)c5)ccc3C)C4)c2)CC1` [SIJ1795, N-(3-(7-((3-(4-Ethylpiperazin-1-yl)phenyl)amino)-1-methyl-2-oxo-1,4-dihydropyrimido[4,5-d]pyrimidin-3(2H)-yl)-4-methylphenyl)-3-(trifluoromethyl)benzamide], the GI50 worked out at 144 ± 23 nM in the assay on AsPC-1 (KRAS-G12D) and 1 ± 0.126 µM with U937 (KRAS, NRAS-wt). For the same compound, the “signaling inhibitory activities in cancer cells with mtRAS relative to GNF-7” value in assay [1] is on record as “comparable to those of GNF-7”. Also, in assay [2], the “level of cleaved PARP in cancer cells harboring mtRAS” value is on record as “notably increased”. Besides, the “apoptotic cells population (annexin V/PI) in Ba/F3-NRAS-G12D and Ba/F3-NRAS-G12V cells” value in assay [3] is given as “increase of apoptotic cells”. Further, the “apoptosis against cancer cells harboring mtRAS (annexin V/PI)” value in assay [4] is “induced apoptosis”. For the same compound, the cell cycle arrest entry in assay [5] is “G0/G1 arrest was induced”.

For orientation: GI50 means the concentration that inhibits growth by half.
